Tested on: HeLa cells

N#Cc1c(-n2c(Br)c(Br)c3cc(Br)ccc32)[nH]c2c(Br)cc(Br)cc12 [AETX, aetokthonotoxin]
Cytotoxicity EC50 on HeLa cells converted to mass concentration: 0.65 µg/mL | EC50: 1000 nM
